Here are results for two compounds from patent publication US20230272221A1, “REAGENTS FOR LABELING BIOMOLECULES” (Ultima Genomics, Inc., priority 2020, published 2023).

Series [1] can be described thus: relative fluorescence of dyes coupled directly to oligos, double-stranded DNA bound to beads, flow cytometer. Format: physicochemical. Conditions: FIG. 26. As to the method: Fluorescence was measured with double-stranded DNA bound to beads using a flow cytometer. […] Accordingly, green dyes may have an inherent advantage over red dyes. This difference may owe at least in part to Atto633 being hydrophobic while Atto532 is comparatively hydrophilic.

A short description of series [2]: enzyme-independent bead assay for evaluating quenching with linker arm oligonucleotides. Format: physicochemical. Particulars: APC (red) channel, FIG. 14. The source says:
The dye-labeled nucleotides provided herein may improve quenching between nucleobases and the dyes to which they are attached and/or between dyes in a nucleic acid molecule (e.g., a growing nucleic acid strand), such as in a homopolymeric region of a nucleic acid molecule. Quenching may be evaluated in an enzyme-independent manner.
Synthetic oligos are constructed with one or two “linker arm nucleotides”. Linker arm nucleotides are thymidine analogs with a linker arm containing a primary amine. The oligonucleotide containing the linker arm nucleotide can be labeled with linkers and dyes and HPLC purified. The advantage of using the bead-labeled assay is that exact quantitation of the reagents is not necessary; a large excess can be used in each step and the beads washed, ensuring that only stoichiometric amounts of oligonucleotides are bound to the template. Each dye-linker is put on both oligonucleotides. The beads are measured on the flow cytometer in the APC (red) channel. The percent quenching is determined by the formula: % quenching=100×(1−Flbis/(2*Flmono)).
FIGS. 14 and 15 show quenching results for red dye linkers (FIG. 14) and green dye linkers (FIG. 15). […] The hyp10 or hyp20 linkers improve quenching.

Turning to `CC[N+]1=c2cc3c(cc2CCC1)=C(c1ccccc1C(=O)N(C)CCCC(=O)O)c1ccc(N(C)C)cc1C3(C)C` [Atto633], in series [1], the “brightness of two dyes relative to a single dye coupled to an oligo” value is given as 0.4 ×. For the same compound, the “quenching, red dye linkers” value in series [2] is “hyp10 improves quenching”. Turning to `CCN1/C(=C/C=C/C=C/C2=[N+](CCCCCC(=O)O)c3ccc(S(=O)(=O)O)cc3C2(C)C)C(C)(C)c2cc(S(=O)(=O)[O-])ccc21` [Cy5], the “quenching, red dye linkers” value in series [2] is listed as “quenching may not be improved”.
